Measured values taken from US20260274892A1, “MACROCYCLIC BROAD SPECTRUM ANTIBIOTICS” (RQx Pharmaceuticals, Inc., priority 2017, published 2026).

system: Escherichia coli ATCC 25922; test: Minimum inhibitory concentration (MIC), CLSI broth micro-dilution, E. coli; assay type: cell-based; conditions: Escherichia coli, ATCC25922, 22 h, Table 7, cation adjusted Mueller Hinton Broth + 0.002% Tween-80, 35° C.
Method in brief: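 Antibacterial potency is measured as MIC by the CLSI broth dilution method. Bacteria at OD600 0.0005 in Tween-80-supplemented cation-adjusted Mueller Hinton broth face ten twofold compound dilutions for 22 h at 35° C.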

| MIC [µM] | SMILES |
| --- | --- |
| 0.094 | Cc1nc(-c2ccc(C(C)(C)C)cc2)nc(C)c1C(=O)N[C@@H](CCN)C(=O)N(C)[C@@H]1C(=O)N[C@@H](C)C(=O)N[C@H](C(=O)NCC#N)Cc2ccc(OCCN)c(c2)-c2cc1cc(OC[C@H](O)CN)c2O (racemic) [Compound 588, rac-(8S,11S,14S)-3-(2-aminoethoxy)-N-(cyanomethyl)-18-hydroxy-11-methyl-14-[methyl-[rac-(2S)-4-amino-2-[[2-(4-tert-butylphenyl)-4,6-dimethyl-pyrimidine-5-carbonyl]amino]butanoyl]amino]-10,13-dioxo-17-[rac-(2R)-3-amino-2-hydroxy-propoxy]-9,12-diazatricyclo[13.3.1.12,6]icosa-1(18),2(20),3,5,15(19),16-hexaene-8-carboxamide] |
| 1 | Cc1nc(-c2ccc(C(C)(C)C)cc2)nc(C)c1C(=O)N[C@@H](CCN)C(=O)N(C)[C@@H]1C(=O)N[C@@H](C)C(=O)N[C@H](C(=O)NCC#N)Cc2ccc(OCCN)c(c2)-c2cc1cc(NCCN)c2O (racemic) [Compound 589, rac-(8S,11S,14S)-3-(2-aminoethoxy)-17-(2-aminoethylamino)-N-(cyanomethyl)-18-hydroxy-11-methyl-14-[methyl-[rac-(2S)-4-amino-2-[[2-(4-tert-butylphenyl)-4,6-dimethyl-pyrimidine-5-carbonyl]amino]butanoyl]amino]-10,13-dioxo-9,12-diazatricyclo[13.3.1.12,6]icosa-1(18),2(20),3,5,15(19),16-hexaene-8-carboxamide] |
| 0.25 | COc1c(OC[C@H](O)CN)cc2cc1-c1cc(cc(OC[C@H](O)CN)c1OC)[C@H](N(C)C(=O)[C@H](CCN)NC(=O)c1c(C)nc(-c3ccc(C(C)(C)C)cc3)nc1C)C(=O)N[C@@H](C)C(=O)N[C@H](C(=O)NCC#N)C2 (racemic) [Compound 591, rac-(8S,11S,14S)-N-(cyanomethyl)-3,18-dimethoxy-11-methyl-14-[methyl-[rac-(2S)-4-amino-2-[[2-(4-tert-butylphenyl)-4,6-dimethyl-pyrimidine-5-carbonyl]amino]butanoyl]amino]-10,13-dioxo-4,17-bis[rac-(2R)-3-amino-2-hydroxy-propoxy]-9,12-diazatricyclo[13.3.1.12,6]icosa-1(18),2(20),3,5,15(19),16-hexaene-8-carboxamide] |
| 0.19 | COc1c(OCCN)cc2cc1-c1cc(cc(OCCN)c1OC)[C@H](N(C)C(=O)[C@H](CCN)NC(=O)c1c(C)nc(-c3ccc(C(C)(C)C)cc3)nc1C)C(=O)N[C@@H](C)C(=O)N[C@H](C(=O)NCC#N)C2 (racemic) [Compound 592, rac-(8S,11S,14S)-4,17-bis(2-aminoethoxy)-N-(cyanomethyl)-3,18-dimethoxy-11-methyl-14-[methyl-[rac-(2S)-4-amino-2-[[2-(4-tert-butylphenyl)-4,6-dimethyl-pyrimidine-5-carbonyl]amino]butanoyl]amino]-10,13-dioxo-9,12-diazatricyclo[13.3.1.12,6]icosa-1(18),2(20),3,5,15(19),16-hexaene-8-carboxamide] |
| 1.5 | COc1c(OC[C@H](O)CN)cc2cc1-c1cc(cc(OC[C@H](O)CN)c1OC)[C@H](N(C)C(=O)[C@H](CNS(N)(=O)=O)NC(=O)c1c(C)nc(-c3ccc(C(C)(C)C)cc3)nc1C)C(=O)N[C@@H](C)C(=O)N[C@H](C(=O)NCC#N)C2 (racemic) [Compound 593, rac-(8S,11S,14S)-N-(cyanomethyl)-3,18-dimethoxy-11-methyl-14-[methyl-[rac-(2S)-2-[[2-(4-tert-butylphenyl)-4,6-dimethyl-pyrimidine-5-carbonyl]amino]-3-(sulfamoylamino)propanoyl]amino]-10,13-dioxo-4,17-bis[rac-(2R)-3-amino-2-hydroxy-propoxy]-9,12-diazatricyclo[13.3.1.12,6]icosa-1(18),2(20),3,5,15(19),16-hexaene-8-carboxamide] |
| 0.33 | Cc1nc(-c2ccc(C(C)(C)C)cc2)nc(C)c1C(=O)N[C@@H](CCN)C(=O)N(C)[C@@H]1C(=O)N[C@@H](C)C(=O)N[C@H](C(=O)NCC#N)Cc2ccc(O)c(c2)-c2cc1ccc2OCCNC(=N)N (racemic) [Compound 595, rac-(8S,11S,14S)-N-(cyanomethyl)-18-(2-guanidinoethoxy)-3-hydroxy-11-methyl-14-[methyl-[rac-(2S)-4-amino-2-[[2-(4-tert-butylphenyl)-4,6-dimethyl-pyrimidine-5-carbonyl]amino]butanoyl]amino]-10,13-dioxo-9,12-diazatricyclo[13.3.1.12,6]icosa-1(18),2(20),3,5,15(19),16-hexaene-8-carboxamide] |
| 0.5 | Cc1nc(-c2ccc(C(C)(C)C)cc2)nc(C)c1C(=O)N[C@@H](CCN)C(=O)N(C)[C@@H]1C(=O)N[C@@H](C)C(=O)N[C@H](C(=O)NCC#N)Cc2ccc(O)c(c2)-c2cc1ccc2OCCCNC(=N)N (racemic) [Compound 596, rac-(8S,11S,14S)-N-(cyanomethyl)-18-(3-guanidinopropoxy)-3-hydroxy-11-methyl-14-[methyl-[rac-(2S)-4-amino-2-[[2-(4-tert-butylphenyl)-4,6-dimethyl-pyrimidine-5-carbonyl]amino]butanoyl]amino]-10,13-dioxo-9,12-diazatricyclo[13.3.1.12,6]icosa-1(18),2(20),3,5,15(19),16-hexaene-8-carboxamide] |
| 0.26 | Cc1nc(-c2ccc(C(C)(C)C)cc2)nc(C)c1C(=O)N[C@@H](CCN)C(=O)N(C)[C@@H]1C(=O)N[C@@H](C)C(=O)N[C@H](C(=O)NCC#N)Cc2ccc(OCCCN)c(c2)-c2cc1ccc2O (racemic) [Compound 597, rac-(8S,11S,14S)-3-(3-aminopropoxy)-N-(cyanomethyl)-18-hydroxy-11-methyl-14-[methyl-[rac-(2S)-4-amino-2-[[2-(4-tert-butylphenyl)-4,6-dimethyl-pyrimidine-5-carbonyl]amino]butanoyl]amino]-10,13-dioxo-9,12-diazatricyclo[13.3.1.12,6]icosa-1(18),2(20),3,5,15(19),16-hexaene-8-carboxamide] |
| 0.38 | CNCCOc1ccc2cc1-c1cc(ccc1O)C[C@@H](C(=O)NCC#N)NC(=O)[C@H](C)NC(=O)[C@H]2N(C)C(=O)[C@H](CCN)NC(=O)c1c(C)nc(-c2ccc(C(C)(C)C)cc2)nc1C (racemic) [Compound 600, rac-(8S,11S,14S)-N-(cyanomethyl)-3-hydroxy-11-methyl-18-[2-(methylamino)ethoxy]-14-[methyl-[rac-(2S)-4-amino-2-[[2-(4-tert-butylphenyl)-4,6-dimethyl-pyrimidine-5-carbonyl]amino]butanoyl]amino]-10,13-dioxo-9,12-diazatricyclo[13.3.1.12,6]icosa-1(18),2(20),3,5,15(19),16-hexaene-8-carboxamide] |
| 0.5 | Cc1nc(-c2ccc(C(C)(C)C)cc2)nc(C)c1C(=O)N[C@@H](CCN)C(=O)N(C)[C@@H]1C(=O)N[C@@H](C)C(=O)N[C@H](C(=O)NCC#N)Cc2ccc(O)c(c2)-c2cc1ccc2OCCNCCN (racemic) [Compound 601, rac-(8S,11S,14S)-18-[2-(2-aminoethylamino)ethoxy]-N-(cyanomethyl)-3-hydroxy-11-methyl-14-[methyl-[rac-(2S)-4-amino-2-[[2-(4-tert-butylphenyl)-4,6-dimethyl-pyrimidine-5-carbonyl]amino]butanoyl]amino]-10,13-dioxo-9,12-diazatricyclo[13.3.1.12,6]icosa-1(18),2(20),3,5,15(19),16-hexaene-8-carboxamide] |

| SMILES | MIC [µM] |
| --- | --- |
| CCCCCOc1ccc(-c2nc(C)c(C(=O)N[C@@H](CCN)C(=O)N(C)[C@@H]3C(=O)N[C@@H](C)C(=O)N[C@H](C(=O)NCC#N)Cc4ccc(O)c(c4)-c4cc3ccc4OCCCN)c(C)n2)cc1 (racemic) [Compound 598, rac-(8S,11S,14S)-18-(3-aminopropoxy)-N-(cyanomethyl)-3-hydroxy-11-methyl-14-[methyl-[rac-(2S)-4-amino-2-[[4,6-dimethyl-2-(4-pentoxyphenyl)pyrimidine-5-carbonyl]amino]butanoyl]amino]-10,13-dioxo-9,12-diazatricyclo[13.3.1.12,6]icosa-1(18),2(20),3,5,15(19),16-hexaene-8-carboxamide] | 0.094 |

same assay, conditions: Escherichia coli, ATCC25922, Table 7, cation adjusted Mueller Hinton Broth + 0.002% Tween-80, 35° C., 22 hours

| SMILES | MIC [µM] |
| --- | --- |
| Cc1nc(-c2ccc(C(C)(C)C)cc2)nc(C)c1C(=O)N[C@@H](CNS(N)(=O)=O)C(=O)N(C)[C@@H]1C(=O)N[C@@H](C)C(=O)N[C@H](C(=O)NCC#N)Cc2ccc(OCCN)c(c2)-c2cc1cc(OCCNC(=N)N)c2O (racemic) [Compound 590, rac-(8S,11S,14S)-3-(2-aminoethoxy)-N-(cyanomethyl)-17-(2-guanidinoethoxy)-18-hydroxy-11-methyl-14-[methyl-[rac-(2S)-2-[[2-(4-tert-butylphenyl)-4,6-dimethyl-pyrimidine-5-carbonyl]amino]-3-(sulfamoylamino)propanoyl]amino]-10,13-dioxo-9,12-diazatricyclo[13.3.1.12,6]icosa-1(18),2(20),3,5,15(19),16-hexaene-8-carboxamide] | 0.38 |
| Cc1nc(-c2ccc(C(C)(C)C)cc2)nc(C)c1C(=O)N[C@@H](CCN)C(=O)N(C)[C@@H]1C(=O)N[C@@H](C)C(=O)N[C@H](C(=O)NCC#N)Cc2cc(OCCN)c(O)c(c2)-c2cc1ccc2OC[C@H](O)CN (racemic) [Compound 594, rac-(8S,11S,14S)-4-(2-aminoethoxy)-N-(cyanomethyl)-3-hydroxy-11-methyl-14-[methyl-[rac-(2S)-4-amino-2-[[2-(4-tert-butylphenyl)-4,6-dimethyl-pyrimidine-5-carbonyl]amino]butanoyl]amino]-10,13-dioxo-18-[rac-(2R)-3-amino-2-hydroxy-propoxy]-9,12-diazatricyclo[13.3.1.12,6]icosa-1(18),2(20),3,5,15(19),16-hexaene-8-carboxamide] | 0.13 |
